This is an account of results in patent US7592144B2, “Bacterial ligand-binding sensor” (The Trustees of Princeton University, priority 2005, dated 2009).

Test [1] addresses T1, human estrogen receptor alpha ligand-binding domain (Homo sapiens, UniProt P03372).
T1 construct: expressed in transfected cells; host or cells: E. coli D1210(delta)thyA carrying pMIT::ER*
T1 sequence (P03372 301-553): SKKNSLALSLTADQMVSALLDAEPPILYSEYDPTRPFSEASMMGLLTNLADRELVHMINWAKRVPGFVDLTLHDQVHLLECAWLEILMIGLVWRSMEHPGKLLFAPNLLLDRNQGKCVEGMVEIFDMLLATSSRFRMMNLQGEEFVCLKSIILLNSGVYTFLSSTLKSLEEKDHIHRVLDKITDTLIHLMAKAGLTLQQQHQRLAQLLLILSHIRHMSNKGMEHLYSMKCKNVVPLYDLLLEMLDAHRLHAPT
Kind of test: Detection of antagonism: pMIT::ER* cells grown in the presence of E2 plus increasing concentrations of test compound. It is filed as cell-based. The following applies: 10 micromolar E2, liquid thymineless medium, 34 degrees Celsius, OD600 at 15 hours. The procedure: FIG. 4 is a graph showing antagonism of estrogen agonists and antagonists. […] Relative cell growth was determined by OD600 at 15 hours in 5 milliliter cultures of liquid thymineless medium at 34 degrees Celsius.
(§1) All experiments were carried out at least in duplicate.

The target in the next test is T2, ER (Homo sapiens, UniProt P03372).
T2 sequence (P03372 301-553): T1 sequence (P03372 301-553)
The test can be described thus: Hormone-dependent growth with inteinless MBP-ER-TS fusion.

Test [2] deals with T3, human thyroid hormone receptor beta ligand-binding domain (Homo sapiens, UniProt P10828).
T3 construct: expressed in transfected cells; host or cells: E. coli D1210(delta)thyA carrying pMIT::TR*
T3 sequence (P10828 203-461): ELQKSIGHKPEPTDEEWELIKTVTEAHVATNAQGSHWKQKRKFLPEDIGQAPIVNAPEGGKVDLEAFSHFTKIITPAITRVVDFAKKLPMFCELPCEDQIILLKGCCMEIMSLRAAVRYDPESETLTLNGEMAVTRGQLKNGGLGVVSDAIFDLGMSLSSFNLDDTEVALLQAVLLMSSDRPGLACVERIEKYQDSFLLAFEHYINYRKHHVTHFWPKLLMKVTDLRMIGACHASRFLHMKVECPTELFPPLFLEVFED
The test can be described thus: Paper disk growth test of cells harboring pMIT::TR* on thymineless agar plates. It counts as cell-based. The following applies: 30 degrees Celsius, approximately 50 hours, disks saturated in 10 millimolar solutions. How it is done:
(§2) FIG. 2 consists of FIGS. 2A, 2B, 2C, and 2D. FIG. 2A is a graph that depicts ligand effects on the growth phenotypes of E. coli D1210(delta)thyA cells carrying the pMIT::ER* vector in 50 milliliter cultures of liquid thymineless medium at 34 degrees Celsius. […] Varying concentrations of estrogen were dissolved in dimethylsulfoxide to allow precise control of dosing. Experiments were carried out in duplicate and errors bars represent one standard deviation from the mean value. FIG. 2C is a graph that depicts ligand effects on the growth phenotypes of cells harboring pMIT::TR* in 50 milliliter cultures of liquid thymineless medium at 34 degrees Celsius. FIG. 2D is an image that depicts ligand effects on the growth phenotypes of cells harboring pMIT::TR* and incubated on thymineless agar plates at 30 degrees Celsius for approximately 50 hours. […] In the experiment corresponding to FIG. 2D, the paper disks applied were allowed to saturate in 10 millimolar solutions of estrogen and thyroid hormone prior to applying them to the medium.
In this case a lawn of cells was plated onto thymineless medium and exposed to small paper disks impregnated with either estrogen or thyroid hormone.

Test [3] addresses T3, human thyroid hormone receptor beta ligand-binding domain. The test can be described thus: Growth phenotype of E. coli D1210(delta)thyA cells carrying pMIT::TR* in liquid thymineless medium. It counts as cell-based. The following applies: 34 degrees Celsius, ligand 10 micromolar. The procedure:
as §2, §1

In test [4] the target is T1, human estrogen receptor alpha ligand-binding domain. Kind of test: Growth phenotype of E. coli D1210(delta)thyA cells carrying pMIT::ER* in liquid thymineless medium. It is filed as cell-based. The following applies: 34 degrees Celsius, ligand 10 micromolar. The procedure: as §2, §1

“Also recorded” adds a separate entry of the source.

As for 4-hydroxytamoxifen, the “effect on cell growth when combined with estrogen agonist” value in test [1] was “inhibitory effects”. In addition, the “behaviour (agonist/antagonist) with inteinless fusion” value at ER is on record as “estrogen super-agonist”.
Turning to 17-beta-estradiol [E2], the “colony formation around ligand-impregnated paper disk” value in test [2] is recorded as “no colonies could be observed”.
Turning to `N[C@@H](Cc1ccc(Oc2cc(I)c(O)c(I)c2)c(I)c1)C(=O)O` [T3, 3,3′,5′-triiodo-L-thyronine], the “colony formation around ligand-impregnated paper disk” value in test [2] was “clear colonies were observed”. The results for the “ligand effect on cell growth” value in test [3] and in test [4] were “able to grow only in the presence; also recorded: able to enhance growth” and “insensitive; also recorded: enhance growth only in cell cultures expressing the TR fusion”, respectively.
`CC(=O)[C@H]1CC[C@H]2[C@@H]3CCC4=CC(=O)CC[C@]4(C)[C@H]3CC[C@]12C` [progesterone]: the “ligand effect on cell growth” value in test [3] and in test [4] was “no effect on cell growth” throughout.
